Results published in patent US20040220198A1, “Methods for treating malaria by modulation of G protein function” (priority 2002, published 2004).
Entries after “also recorded” stand apart in the source; their conditions may differ. Ends that are not written are not given here.

Key:
P. berghei = experiment: Standard 4 day Peters assay, P. berghei in mice, drug intraperitoneally; assay type: in vivo; details: for inhibition of parasitemia / P. berghei infection in vivo: mice, day 4 parasitemia
Protocol: (§1) FIG. 11. […] In vivo mouse experiments were done with P. berghei using a standard 4 day Peters assay (W. Peters, B. L. Robinson, Ann Trop Med Parasitol 78, 561 (1984)). P. berghei and the racemic form of propranolol were administered intraperitoneally; five mice were used per data point. In IC50 studies, 5 data points were taken. Mice were given 5×10^7 parasites on day 0, and indicated concentrations of drug twice a day on days 0-3. Tail bleeds were carried out on day 4 to ascertain parasitemia, after which the animals were sacrificed.
as §1, with “12.” for “11.”, “ICI 181,551” for “the racemic form of propranolol”
(§2) In vivo mouse experiments were done with P. berghei using a standard 4 day Peters assay (W. Peters, B. L. Robinson, Ann Trop Med Parasitol 78, 561 (1984)). P. berghei and β2-adrenergic receptor antagonists were administered intraperitoneally; five mice were used per data point. In IC50 studies, 5 data points were taken. Mice were given 5×10^7 parasites on day 0, and indicated concentrations of drug twice a day on days 0-3. Tail bleeds were carried out on day 4 to ascertain parasitemia, after which the animals were sacrificed.
as §2, with “assay.” for “assay (W. Peters, B. L. Robinson, Ann Trop Med Parasitol 78, 561 (1984)).”, “ICI 181,551” for “β2-adrenergic receptor antagonists”
as §2, with “assay.” for “assay (W. Peters, B. L. Robinson, Ann Trop Med Parasitol 78, 561 (1984)).”, “the indicated” for “β2-adrenergic receptor”, “point.” for “point. In IC50 studies, 5 data points were taken.”

[1] = tested on: P. falciparum (strain 3D7); experiment: In vitro erythrocytic infection assay with Gs receptor agonists/antagonists, new ring stage infection after 4-6 h; assay type: cell-based, Plasmodium falciparum; details: for blocking the stimulation of infection by P. falciparum in vitro: 10 μM isoproterenol or antagonist, 4-6 hours, FIG. 10
Protocol: Effects of β-adrenergic receptor agonist (isoproterenol) or antagonist (propranolol) on erythrocyte infection by P. falciparum. Cultures containing 2×10^8 red cells and 2.5×10^6 synchronized segmenters were incubated in 1 ml of 10% medium (10% human serum with RPMI) with the indicated agonist, antagonist, agonist+antagonist, or mock treated (solvent alone: 1 μl) for 6 h.
Effects of adenosine receptor agonist (NECA) and antagonist (8-SPT) on infection of erythrocytes by P. falciparum. Cultures were set up as described in FIG. 5, indicated concentrations of NECA, 8-SPT, both or solvent alone were added and infection was scored after 6 h as described.
Effects of (β-adrenergic and adenosine receptor) agonists and antagonists singly and in combination on in vitro erythrocytic infection by P. falciparum. In vitro infection assays were done with synchronized cultures of P. falciparum (strain 3D7) using standard culture conditions (K. Haldar, M. A. J. Ferguson, G. A. M. Cross, J Biol Chem 260, 4969 (1985)). A starting parasitemia of 2.5% schizonts (44-48 h in development) in 20 μl of red blood cells with 1 ml of 10% human serum in RPMI1640 was used. The cultures were incubated for 4-6 hours in the presence of Gαs protein receptor agonist or antagonist, or vehicle control. All detectable schizonts ruptured, and new ring stage infection was scored by Giemsa staining of thin blood smears.
In vitro effect of various β-adrenergic antagonists on inhibition of P. falciparum infection in red blood cells treated with isoproterenol. In vitro infection assays were done with synchronized cultures of P. falciparum (strain 3D7) using standard culture conditions (K. Haldar, M. A. J. Ferguson, G. A. M. Cross, J Biol Chem 260, 4969 (1985)). A starting parasitemia of 2.5% schizonts (44-48 h in development) in 20 μl of red blood cells with 1 ml of 10% human serum in RPMI1640 was used. The cultures were incubated for 4-6 hours in the presence of 10 μM beta-adrenergic receptor agonists or antagonists, or vehicle control. All detectable schizonts ruptured, and new ring stage infection was scored by Giemsa staining of thin blood smears.
In vitro infection assays were done with synchronized cultures of P. falciparum (strain 3D7) using standard culture conditions. A starting parasitemia of 2.5% schizonts (44-48 h in development) in 20 μl of red blood cells with 1 ml of 10% human serum in RPMI1640 was used. The cultures were incubated for 4-6 hours in the presence of 10 μM isoproterenol or antagonist, or vehicle control. All detectable schizonts ruptured, and new ring stage infection was scored by Giemsa staining of thin blood smears.

P. falciparum [2] = experiment: Overnight P. falciparum infection assay with C terminal G protein peptides, new ring stage infection scored by Giemsa staining; assay type: cell-based, Plasmodium falciparum; details: for effect on erythrocytic infection / new ring formation (words): 500 μM peptide in culture; for % Inhibition of Infection: 500 uM peptide, overnight, compared to mock treated cultures, standard error 10%
Protocol: FIG. 2. Effects of FITC-Gs peptide and its FITC-Gs-scrambled peptide on erythrocytic infection. Assays containing 500 μM of indicated peptides, their FITC-derived counterparts or solvent alone were added to a standard infection assay (see Table 1). FIG. 3. Cells taken from a standard infection assay incubated with 500 μM FITC-Gs peptide (A) or FITC-Gs scrambled peptide (B) were fixed in formaldehyde, and without permeabilization subjected to an indirect immunofluorescence assay with anti-MSP1 antibody (red, to detect extracellular parasites) and stained with DAPI (blue, to visualize nuclei). Samples were imaged by digitized fluorescence microscopy (FITC signal is green). Infection assays were set up using synchronized cultures of P. falciparum with a starting parasitemia of 6% schizonts. Cultures were incubated with 500 uM of the indicated peptides (Gs, Gs-scrambled, Gq or Gi-reversed) or mock treated (with no peptide) overnight and subsequently scored for new ring stage infection by Giemsa staining of thin blood smears. Infection is shown compared to that of mock treated cultures (containing no peptide).

[3] = target: host Gs coupled receptors of the red cell; experiment: cell-based or functional assay
P. falciparum [4] = experiment: Dose dependent effect of Gs peptide on ring-infected P. falciparum cultures (development to trophozoites and next generation rings); assay type: cell-based, Plasmodium falciparum; details: for effect on parasite growth in culture / new ring formation: extracellular 100-500 μM, Tables I and II
Protocol: Table II illustrates the dose dependent effect of Gs peptide on inhibition of P. falciparum infection. In this study, ring-infected cultures at 1% parasitemia were incubated with the indicated concentrations of Gs peptides under standard culture conditions and monitored for development to the subsequent trophozoite stage as well as the next generation of ring stage parasites. Parasitemias were detected by Giemsa staining of thin blood smears. Standard error: 10%.

P. falciparum [5] = experiment: Preincubation (4 h) of red cells or schizonts with Gs peptide, wash, then overnight infection assay; assay type: cell-based, Plasmodium falciparum; details: 500 μM, 4 h preincubation of red cells or late stage segmenters/schizonts, FIG. 1; listed as Gs peptide
Protocol: FIG. 1. Effects of preincubating (for 4 h) red cells or schizonts with Gs peptide on malarial infection. Uninfected red cells or schizonts were resuspended at 2×10^8 cells/ml in RPMI1640 and incubated with 500 μM Gs peptide or mock treated for 4 h at 37° C. The cells were subsequently recovered by centrifugation and washing in peptide-free medium. Washed cells were then subjected to an overnight infection assay (using 4% schizonts to infect the culture) in the absence of peptides.

Q: Which IC90 (P. berghei; P. berghei infections in mice, twice a day days 0-3, FIG. 11) does the source give for `CC(C)NCC(O)COc1cccc2ccccc12` (racemic) [racemic propranolol] here?
A: 85 mg/kg/day

Q: And the “inhibition of parasitemia / P. berghei infection in vivo” value (P. berghei)?
A: block P. berghei infections in mice

Q: What about the “blocking the stimulation of infection by P. falciparum in vitro” value [1] of the same compound?
A: inhibit agonist-stimulated infection of P. falciparum in vitro

Q: With `CC(C)NC[C@@H](O)COc1cccc2ccccc12` (single isomer, unassigned) [inactive isomer of propranolol] as the compound, how does the “inhibition of parasitemia / P. berghei infection in vivo” value (P. berghei) read?
A: no effect

Q: And the “P. falciparum growth in culture” value [1]?
A: no effect

Q: How did the “inhibition of parasitemia / P. berghei infection in vivo” value (P. berghei) turn out when `Cc1ccc(OCC(O)C(C)NC(C)C)c2c1CCC2` (centres unmarked) [ICI 181,551] was run?
A: effective at inhibiting parasitemia in vivo

Q: With `CC(C)NCC(O)COc1ccc(CC(N)=O)cc1` (centres unmarked) [altenolol, 4-[2-Hydroxy-3-[(1-methylethyl)amino]-propoxy]benzeneacetamide] as the compound, how does the “blocking the stimulation of infection by P. falciparum in vitro” value [1] read?
A: almost as effective as propranolol at blocking the stimulation of infection

Q: For `COc1ccc(OC)c(C(O)C(C)NC(C)(C)C)c1` (centres unmarked) [butoxamine], which “blocking the stimulation of infection by P. falciparum in vitro” value [1] is on record?
A: lower inhibitory effect

Q: “ELRLQHYMQLR (SEQ ID NO:2) (synthetic scrambled G s peptide Gscb1) [Gs-scrambled]” was tested. Which “effect on erythrocytic infection / new ring formation (words)” value (P. falciparum [2]) did it give?
A: does not block infection

Q: And the “effect on erythrocytic infection / new ring formation (words)” value (P. falciparum [2]; listed as Gscb1)?
A: virtually no effect

Q: And the “% Inhibition of Infection” value (P. falciparum [2])?
A: 4%

Q: “Gαs peptide (C terminal peptide of the heterotrimeric G protein Gs)” was tested. Which % Inhibition of Infection (P. falciparum erythrocytic infection, 500 uM peptide, overnight) [3] did it give?
A: 87%

Q: And the Day 3 % Ring (new ring stage parasitemia) at 5 µM Gs peptide; 5.2 at 0 µM [3]?
A: 3.8%

Q: And the Day 3 % Ring (new ring stage parasitemia) at 20 µM Gs peptide; 5.2 at 0 µM [3]?
A: 2.7%

Q: What about the Day 3 % Ring (new ring stage parasitemia) at 50 µM Gs peptide; 5.2 at 0 µM [3] of the same compound?
A: 1.9%

Q: What about the Day 3 % Ring (new ring stage parasitemia) at 100 µM Gs peptide; 5.2 at 0 µM [3] of the same compound?
A: 1.4%

Q: And the Day 3 % Ring (new ring stage parasitemia) at 200 µM Gs peptide; 5.2 at 0 µM [3]?
A: 0.6%

Q: And the Day 3 % Ring (new ring stage parasitemia) at 500 µM Gs peptide; 5.2 at 0 µM [3]?
A: 0.4%

Q: Which “effect on erythrocytic infection / new ring formation (words)” value (P. falciparum [2]) does the source give for “LQLNLKEYNLV (SEQ ID NO: 3) (synthetic C terminal peptide of Gq)” here?
A: little effect on plasmodial growth; also recorded: no significant effect on infection

Q: What about the “% Inhibition of Infection” value (P. falciparum [2]) of the same compound?
A: 20%

Q: For “NGIKCLFNDKL (SEQ ID NO:4) (synthetic reverse C terminal peptide of Gri) [Gi-reverse, reverse of C terminal peptide of Gi]”, which “effect on erythrocytic infection / new ring formation (words)” value (P. falciparum [2]; listed as Gi) is on record?
A: no significant effect on infection

Q: What about the “effect on erythrocytic infection / new ring formation (words)” value (P. falciparum [2]; listed as Gri) of the same compound?
A: little effect on plasmodial growth

Q: And the “% Inhibition of Infection” value (P. falciparum [2])?
A: 6%

Q: With “QRMHLRQYELL (SEQ ID NO:1) (also: acetylated) [Gs]” as the compound, how does the “effect on erythrocytic infection / new ring formation (words)” value (P. falciparum [2]) read?
A: marked inhibition of new rings; also recorded: significantly reduced erythrocytic infection

Q: And the “% Inhibition of Infection” value (P. falciparum [2])?
A: 87%

Q: What about the “% Ring” value (P. falciparum [4]; Day 1, 5 μM Gs Peptide) of the same compound?
A: 1.0%

Q: And the “% Ring” value (P. falciparum [4]; Day 1, 20 μM Gs Peptide)?
A: 1.0%

Q: What about the “% Ring” value (P. falciparum [4]; Day 1, 50 μM Gs Peptide) of the same compound?
A: 1.0%

Q: What about the “% Ring” value (P. falciparum [4]; Day 1, 100 μM Gs Peptide) of the same compound?
A: 1.0%

Q: What about the “% Ring” value (P. falciparum [4]; Day 1, 200 μM Gs Peptide) of the same compound?
A: 1.0%

Q: What about the “% Ring” value (P. falciparum [4]; Day 1, 500 μM Gs Peptide) of the same compound?
A: 1.0%

Q: And the “% Troph” value (P. falciparum [4]; Day 2, 5 μM Gs Peptide)?
A: 0.9%

Q: And the “% Troph” value (P. falciparum [4]; Day 2, 20 μM Gs Peptide)?
A: 1.0%

Q: What about the “% Troph” value (P. falciparum [4]; Day 2, 50 μM Gs Peptide) of the same compound?
A: 0.9%

Q: And the “% Troph” value (P. falciparum [4]; Day 2, 100 μM Gs Peptide)?
A: 0.8%

Q: And the “% Troph” value (P. falciparum [4]; Day 2, 200 μM Gs Peptide)?
A: 1.0%

Q: What about the “% Troph” value (P. falciparum [4]; Day 2, 500 μM Gs Peptide) of the same compound?
A: 0.9%

Q: And the “% Ring” value (P. falciparum [4]; Day 3, 5 μM Gs Peptide)?
A: 3.8%

Q: What about the “% Troph” value (P. falciparum [4]; Day 3, 5 μM Gs Peptide) of the same compound?
A: 0.6%

Q: What about the “% Ring” value (P. falciparum [4]; Day 3, 20 μM Gs Peptide) of the same compound?
A: 2.7%

Q: And the “% Troph” value (P. falciparum [4]; Day 3, 20 μM Gs Peptide)?
A: 0.6%

Q: What about the “% Ring” value (P. falciparum [4]; Day 3, 50 μM Gs Peptide) of the same compound?
A: 1.9%

Q: What about the “% Troph” value (P. falciparum [4]; Day 3, 50 μM Gs Peptide) of the same compound?
A: 0.3%

Q: And the “% Ring” value (P. falciparum [4]; Day 3, 100 μM Gs Peptide)?
A: 1.4%

Q: What about the “% Troph” value (P. falciparum [4]; Day 3, 100 μM Gs Peptide) of the same compound?
A: 0.6%

Q: And the “% Ring” value (P. falciparum [4]; Day 3, 200 μM Gs Peptide)?
A: 0.6%

Q: And the “% Troph” value (P. falciparum [4]; Day 3, 200 μM Gs Peptide)?
A: 0.5%

Q: What about the “% Ring” value (P. falciparum [4]; Day 3, 500 μM Gs Peptide) of the same compound?
A: 0.4%

Q: And the “% Troph” value (P. falciparum [4]; Day 3, 500 μM Gs Peptide)?
A: 0.5%

Q: And the “effect on parasite growth in culture / new ring formation” value (P. falciparum [4]; listed as Gs peptide)?
A: marked effect on new ring formation

Q: What about the “effect on parasite growth in culture / new ring formation” value (P. falciparum [4]; listed as Gαs peptide) of the same compound?
A: inhibit parasite growth in culture, in a dose dependent manner

Q: And the “extracellular concentrations required for significant inhibition” value (P. falciparum [4]; new ring formation)?
A: > 50 µM

Q: And the “effect of preincubation with peptide on infection” value (P. falciparum [5])?
A: no detrimental effect on infection; also recorded: failed to block infection
